Test: Displacement of [3H]TBOB from GABAA receptor in Sprague-Dawley rat cerebral cortex
Format: tissue-based

Row | Compound | IC50 [µM]
1 | CC(=O)[C@H]1CC[C@H]2[C@@H]3CC[C@@H]4C[C@H](O)CC[C@]4(C)[C@H]3CC[C@]12C [ELTANOLONE] | 0.83
2 | CC(=O)[C@H]1CC[C@H]2[C@@H]3CCC4=C[C@H](O)CC[C@@]45CO[C@@H](C[C@]12C)[C@@H]35 | 0.518
3 | CC(=O)[C@H]1CC[C@H]2[C@@H]3CC[C@H]4C[C@H](O)C[C@H]5O[C@H](C[C@]12C)[C@@H]3[C@]45C | 0.741
4 | CC(=O)[C@H]1CC[C@H]2[C@@H]3CC[C@H]4C[C@H](O)CC[C@]4(C)[C@H]3CC[C@]12C [BREXANOLONE] | 0.329
5 | CC(=O)[C@H]1CC[C@H]2[C@@H]3CC[C@@H]4C[C@H](O)C[C@@H]5O[C@H](C[C@]12C)[C@@H]3[C@]45C | 0.42
